The text below walks through data of patent publication EP3290412A1, “HIV-1 NUCLEOCAPSID INHIBITORS” (Università degli Studi di Siena, priority 2016, dated 2018).

One experiment has as its target NC(11-55) (Human immunodeficiency virus type 1, UniProt P12493). Put plainly: NC inhibition assay (NC-induced cTAR DNA destabilization, fluorescence). The class given is biochemical, HIV-1. The note with it: for inhibition at 100 µM: single point screening, positive = >25% inhibition at 100µM. Summed up:
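Doubly labelled cTAR (0.1 µM, Alexa488/Dabcyl) pre-complexed with 1 µM Zn-loaded NC(11-55) for 15 min, then compound added for a further 15 min; run at 20 °C in Tris-HCl pH 7.5, 30 mM NaCl, 0.2 mM MgCl2. Fluorescence read at ex 480/em 520 nm. IC50 taken from dose-response fit of % inhibition of NC-induced fluorescence increase.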

The test system of experiment [1] is HIV-1 reference strain NL4-3. Put plainly: BiCycle assay (MT-2 then TZM-bl cells). The class given is cell-based. The note with it: for IC50: Human immunodeficiency virus 1, NL43, TZM-bl, read-out: BiCycle IC50 nM; for pIC50: Human immunodeficiency virus 1, NL43, MT-2 cells 72 hours then TZM-bl cells two days, NL4-3, read-out: BiCycle IC50. Summed up: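 MT-2 cells were infected with NL4-3 in the presence of five-fold compound dilutions. After 72 h, the supernatant was passed to TZM-bl cells. Two days later, luciferase luminescence was read and IC50 calculated, giving a readout that spans the whole replication cycle.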

Experiment [2] deals with T1, full length (1-55) HIV-1 NCp7 (Human immunodeficiency virus type 1 group M subtype B, UniProt P12493).
T1 construct: recombinant full length (1-55) HIV-1 NCp7 proteins; made in house
Put plainly: Electromobility Shift Assay (EMSA), competition for ssDNA binding. Conditions: NCp7 300 nM, M13mp18 ssDNA; positive = >25% inhibition at 100µM. Summed up: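 Recombinant NL4-3 NCp7 (300 nM in the pre-mix) was combined with compound in 20 mM Tris-HCl pH 7.4, 2 mM MgCl2, 100 mM NaCl, 1 mM DTT, then M13mp18 ssDNA was added for 25 min at 37 °C. Complexes were run on 1% agarose/0.5x TBE and stained with SybrGold. IC50 is the concentration at which bound ssDNA migrated 50% of the bound–unbound distance (triplicate).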
(Mobility shift assays separate free from complexed probe on a gel.)

One may read the pIC50 as the negative decadic logarithm of the IC50, by convention in mol/L. The term inhibition denotes the share of the control response that was lost under treatment. The low end stands for little suppression, the high end for strong suppression. As a reminder, the IC50 is the midpoint of a concentration-inhibition curve.

pIC50: −log10 of the molar value. Read-outs that look alike come from different tables or passages of the source.

Regarding `CCNCc1ccc(-c2nc(O)c(O)c(C(=O)N[C@H](C)C3CCCCC3)n2)nc1` [Compound 60, (R)-N-(1-cyclohexylethyl)-2-(5-((ethylamino)methyl)pyridin-2-yl)-5,6-dihydroxypyrimidine-4-carboxamide], on NC(11-55), the pIC50 was 5.46 and the inhibition at 100 µM is greater than 25%. In addition, in experiment [1], the IC50 turned out to be 694 nM. The EMSA screening results in experiment [2] is reported as “Negative”.
In the same order, the values of `CC(OC(=O)c1nc(-c2ccccn2)nc(O)c1O)C1CCCCC1` (centres unmarked) [Compound 17, 1-cyclohexylethyl 5,6-dihydroxy-2-(pyridin-2-yl)pyrimidine-4-carboxylate] are 4.05, greater than 25%, 2030 nM and “Negative”.
In the same order, the values of `O=C(OCCCC1CCCCC1)c1nc(-c2ccccn2)nc(O)c1O` [Compound 14, 3-cyclohexylpropyl 5,6-dihydroxy-2-(pyridin-2-yl)pyrimidine-4-carboxylate] are 4.56, greater than 25%, 6830 nM and “Negative”.
On NC(11-55), `C[C@@H](NC(=O)c1nc(-c2cc(CCN(C)C)ccn2)nc(O)c1O)C1CCCCC1` [Compound 92, (R)-N-(1-cyclohexylethyl)-2-(4-(2-(dimethylamino)ethyl)pyridin-2-yl)-5,6-dihydroxypyrimidine-4-carboxamide] had a pIC50 of 5.00 and an inhibition at 100 µM greater than 25%. In addition, the IC50 in experiment [1] amounted to 1400 nM. Also, the EMSA screening results in experiment [2] is recorded as “Negative”.
On to `C[C@@H](NC(=O)c1nc(-c2cc(N3CCN(C)CC3)ccn2)nc(O)c1O)C1CCCCC1` [Compound 76, (R)-N-(1-cyclohexylethyl)-5,6-dihydroxy-2-(4-(4-methylpiperazin-1-yl)pyridin-2-yl)pyrimidine-4-carboxamide], for which, on NC(11-55), the pIC50 was 5.15 and the inhibition at 100 µM was greater than 25%. In experiment [1], the IC50 amounted to 565 nM. Also, the EMSA screening results in experiment [2] is “Positive (A compound showing >25% inhibition when tested at 100µM concentration is considered as "positive")”.
As to `CC(NC(=O)c1nc(-c2cc(Cl)ccn2)nc(O)c1O)C1CCC(F)(F)CC1` (centres unmarked) [Compound 87, 2-(4-chloropyridin-2-yl)-N-(1-(4,4-difluorocyclohexyl)ethyl)-5,6-dihydroxypyrimidine-4-carboxamide], on NC(11-55), the pIC50 was 4.39 and the inhibition at 100 µM was greater than 25%. Further, the IC50 in experiment [1] was found to be 1830 nM. Also, the EMSA screening results in experiment [2] is “Negative”.
In the same order, the values of `C[C@H](NC(=O)c1nc(-c2cc(Cl)ccn2)nc(O)c1O)C1CCCCC1` [Compound 78, (S)-2-(4-chloropyridin-2-yl)-N-(1-cyclohexylethyl)-5,6-dihydroxypyrimidine-4-carboxamide] are 4.74, greater than 25%, 285 nM and “Positive (A compound showing >25% inhibition when tested at 100µM concentration is considered as "positive")”.
In the same order, the values of `C[C@@H](NC(=O)c1nc(-c2cc(CCN)ccn2)nc(O)c1O)C1CCCCC1` [Compound 88, (R)-2-(4-(2-aminoethyl)pyridin-2-yl)-N-(1-cyclohexylethyl)-5,6-dihydroxypyrimidine-4-carboxamide] are 5.12, greater than 25%, 12700 nM and “Positive (A compound showing >25% inhibition when tested at 100µM concentration is considered as "positive")”.
`C[C@@H](NC(=O)c1nc(-c2cccc(Cl)n2)nc(O)c1O)C1CCCCC1` [Compound 34, (R)-2-(6-chloropyridin-2-yl)-N-(1-cyclohexylethyl)-5,6-dihydroxypyrimidine-4-carboxamide]: on NC(11-55), the pIC50 was 4.32 and the inhibition at 100 µM was greater than 25%. Moreover, in experiment [1], the IC50 is 665 nM. For the same compound, the EMSA screening results in experiment [2] is recorded as “Negative”.
In the same order, the values of `COc1ccc2nc(-c3nc(O)c(O)c(C(=O)N[C@H](C)C4CCCCC4)n3)ccc2c1` [Compound 66, (R)-N-(1-cyclohexylethyl)-5,6-dihydroxy-2-(6-methoxyquinolin-2-yl)pyrimidine-4-carboxamide] are 5.10, greater than 25%, 1970 nM and “Positive (A compound showing >25% inhibition when tested at 100µM concentration is considered as "positive")”.
`Cc1ccc(-c2nc(O)c(O)c(C(=O)N[C@H](C)C3CCCCC3)n2)nc1C` [Compound 67, (R)-N-(1-cyclohexylethyl)-2-(,5,6-dimethylpyridin-2-yl)-5,6-dihydroxypyrimidine-4-carboxamide] showed an inhibition at 100 µM at NC(11-55) greater than 25%. Also, the pIC50 in experiment [1] is 5.87. In addition, the EMSA screening results in experiment [2] is “Positive (A compound showing >25% inhibition when tested at 100µM concentration is considered as "positive")”.
At NC(11-55), `C[C@@H](NC(=O)c1nc(-c2nc3ccccc3[nH]2)nc(O)c1O)C1CCCCC1` [Compound 29, (R)-2-(1H-benzo[d]imidazol-2-yl)-N-(1-cyclohexylethyl)-5,6-dihydroxypyrimidine-4-carboxamide] gave a pIC50 of 5.60 and an inhibition at 100 µM greater than 25%. Further, in experiment [1], the IC50 came out at 1780 nM. For the same compound, in experiment [2], the EMSA screening results was “Positive (A compound showing >25% inhibition when tested at 100µM concentration is considered as "positive")”.
In the case of `C[C@@H](NC(=O)c1nc(-c2cc(Cl)ccn2)nc(O)c1O)C1CCCCC1` [Compound 26, (R)-2-(4-chloropyridin-2-yl)-N-(1-cyclohexylethyl)-5,6-dihydroxypyrimidine-4-carboxamide], at NC(11-55), the pIC50 was 5.82 and the inhibition at 100 µM was greater than 25%. In experiment [1], the IC50 came out at 121 nM. The EMSA screening results in experiment [2] is listed as “Positive (A compound showing >25% inhibition when tested at 100µM concentration is considered as "positive")”.
Turning to `CC1CCCCC1NC(=O)c1nc(-c2ccccn2)nc(O)c1O` (centres unmarked) [Compound 59, 5,6-dihydroxy-N-(2-methylcyclohexyl)-2-(pyridin-2-yl)pyrimidine-4-carboxamide], at NC(11-55), the pIC50 was 4.30 and the inhibition at 100 µM is greater than 25%. For the same compound, the IC50 in experiment [1] came out at 408 nM. Also, the EMSA screening results in experiment [2] was “Positive (A compound showing >25% inhibition when tested at 100µM concentration is considered as "positive")”.
On NC(11-55), `C[C@@H](NC(=O)c1nc(-c2cccc(N)n2)nc(O)c1O)C1CCCCC1` [Compound 45, (R)-2-(6-aminopyridin-2-yl)-N-(1-cyclohexylethyl)-5,6-dihydroxypyrimidine-4-carboxamide] gave a negative logarithm of the IC50 (pIC50) of 4.52 and an inhibition at 100 µM greater than 25%. For the same compound, the IC50 in experiment [1] was 1390 nM. In experiment [2], the EMSA screening results is “Positive (A compound showing >25% inhibition when tested at 100µM concentration is considered as "positive")”.
For the compound `O=C(NCCC1CCCCC1)c1nc(-c2ccccn2)nc(O)c1O` [Compound 6, N-(2-cyclohexylethyl)-5,6-dihydroxy-2-(pyridin-2-yl)pyrimidine-4-carboxamide], at NC(11-55), the pIC50 is 4.43 and the inhibition at 100 µM was greater than 25%. In addition, the IC50 in experiment [1] was 2260 nM. In addition, the EMSA screening results in experiment [2] was “Positive (A compound showing >25% inhibition when tested at 100µM concentration is considered as "positive")”.
With `C[C@@H](NC(=O)c1nc(-c2cccc(C(=O)OCc3ccccc3)n2)nc(O)c1O)C1CCCCC1` [Compound 54, benzyl (R)-6-(4-((1-cyclohexylethyl)carbamoyl)-5,6-dihydroxypyrimidin-2-yl)picolinate], the inhibition at 100 µM against NC(11-55) was greater than 25%. Further, the pIC50 in experiment [1] was 6.37. Also, the EMSA screening results in experiment [2] was “Positive (A compound showing >25% inhibition when tested at 100µM concentration is considered as "positive")”.
In the case of `C[C@@H](NC(=O)c1nc(-c2ccc(NC(=O)OC(C)(C)C)cn2)nc(O)c1O)C1CCCCC1` [Compound 61, tert-butyl (R)-(6-(4-((1-cyclohexylethyl)carbamoyl)-5,6-dihydroxypyrimidin-2-yl)pyridin-3-yl)carbamate], the pIC50 on NC(11-55) (cTAR DNA 0.1 µM, 1 µM NC(11-55), 20 °C, pH 7.5, read-out: NC inhibition IC50) was 4.77. The inhibition at 100 µM against NC(11-55) was greater than 25%. Besides, in experiment [1], the IC50 turned out to be 210 nM. Also, in experiment [2], the EMSA screening results is given as “Positive (A compound showing >25% inhibition when tested at 100µM concentration is considered as "positive")”.
On NC(11-55), `O=C(NC1(C2CCCCC2)CC1)c1nc(-c2ccccn2)nc(O)c1O` [Compound 24, N-(1-cyclohexylcyclopropyl)-5,6-dihydroxy-2-(pyridin-2-yl)pyrimidine-4-carboxamide] showed a pIC50 of 4.65 and an inhibition at 100 µM greater than 25%. Also, in experiment [1], the half-maximal inhibitory concentration (IC50) was 110 nM. Also, the EMSA screening results in experiment [2] was “Positive (A compound showing >25% inhibition when tested at 100µM concentration is considered as "positive")”.
